# In patent US12569482B2, “Methods and compositions for treating idiopathic pulmonary fibrosis” (priority 2018, dated 2026):
# Like-named read-outs stand apart in the source and are kept apart here.
# Legend:
# [1] = tested on: bleomycin-induced pulmonary fibrosis; assay: Bleomycin mouse model of pulmonary fibrosis, Example 3 (itraconazole inhalation, oral nintedanib); type: in vivo, ICR mice; conditions: oral 60 mg/kg
# Procedure: Iodine was used to disinfect the neck hair and skin. Later, the neck skin was cut to expose the trachea. 50 μL of PBS or bleomycin hydrochloride (Hisun Pfizer pharmaceutical Co., LTD, 17001711) in 0.9% sodium chloride solution ([…], i.e., […]) was quickly sprayed as mist into the trachea of mice from the Control Group or the other group with a high pressure syringe connected to a spraying nozzle. At the end, the skin was sutured and disinfected, and the mice were returned to the cages for recovery. On Day 5, the mice treated with bleomycin were divided into six groups at random (referred to as Group 2-7). […] For itraconazole inhalation, each mouse was placed in a 16×13×9 (length×width×height in cm) cabinet. Itraconazole preparation of 5, 15 or 50 mg/mL was sprayed into the cabinet with a compressed nebulizer. [table] Twenty-four hours after the last drug administration, the mice were sacrificed by dislocation of cervical vertebra. The trachea was isolated and intubated. The upper lobe of the left lung was ligated. […] The total number of leukocytes in the BALF was counted. The BALF was centrifuged at 2000 rpm/min for 10 min at 4° C. The supernatant was collected and stored at -80° C. for cytokine measurement, and the deposit was smeared on glass slides. After air drying at room temperature, the slides were subjected to Wright's-Giemsa staining. The number of neutrophils, lymphocytes and macrophages were counted under a microscope from a total of 200 cells for each slide. The upper left lung tissues were used for measuring the level of hydroxyproline, and the lower part was fixed in formalin for H&E staining and Masson's staining. The level of hydroxyproline in the lung tissues was measured using a Hydroxyproline Assay kit (Nanjing JianCheng Bioengineering Institute). The level of TGF-β1 in 100 μL BALF was determined using a mouse TGF-β1 ELISA kit (Beijing 4A Biotech Co., LTD), and the level of type I collagen (Col I) in 100 μL BALF was determined using a mouse Collagen Type I ELISA kit (CUSABIO BIOTEH). […] Then, the lung tissues were sectioned into 4 μm-thick sections for H&E staining and Masson's staining. H&E staining was used to observe the alveolar hyperemia, the infiltration or aggregation of neutrophils in the alveolar space or the vascular wall, and the thickening of alveolar septum or the formation of hyaline membranes. The degree of fibrosis in the lesions with H&E staining was observed under microscope and scored using a semi-quantitative Ashcroft scoring criteria below. Grade 0: Normal tracheal bronchoalveolar structures; Grade 1: Minimal fibrous thickening of alveolar or bronchiolar walls; Grade 3: Moderate thickening of walls without obvious damage to lung architecture; Grade 5: Increased fibrosis with definite damage to lung structure and formation of fibrous bands or small fibrous masses; Grade 7: Severe distortion of structure and large fibrous areas, with honeycomb lung placed in this category; Grade 8: Total fibrous obliteration. The severity of fibrosis between two odd numbers was considered as the corresponding even number. On the other hand, IOD value of positive Masson's staining site was measured by Image pro software for analysis. The data were tested for the homogeneity of variance. If the variance was homogenous (p>0.05), a single factor variance analysis was performed. The Dunnet test was performed for the differences between each dose group and the control group. If the variance was heterogenous (p 0.05), a non-parametric test was conducted, followed by the […] test for examining the differences between each dose group and the control group. The difference was considered significant when p<0.05.
# [2] = Plasma drug levels, Example 2; type: in vivo, C57BL/6 mice; conditions: C57BL/6, mouse
# Procedure: On Day 5, the mice with bleomycin treatment were divided into four groups at random (referred to as Group 2-5, n=10), and orally administered with vehicle (DMSO: PEG400=1:9, V/V), itraconazole (Kangmanlin Co. Ltd. prepared in DMSO/PEG400 with a final concentration of 1.5 mg/mL), nintedanib (Kangmanlin Co. Ltd., prepared in DMSO/PEG400 with a final concentration of 6.0 mg/mL), and itraconazole+nintedanib (prepared in DMSO/PEG400 with final concentrations of 1.5 mg/mL and 6.0 mg/mL) at daily doses of 10 mL/kg, 15 mg/kg, 60 mg/kg and 15+60 mg/kg, respectively. The mice in the Control group was administered with vehicle (DMSO/PEG400) at a daily dose of 10 mL/kg. Mice body weights were measured and recorded on Day 1, 5, 12, 19 and 21.
# Two hours post drug administration on Day 21, all animals were anaesthetized with pentobarbital (i.p., 60 mg/kg). Blood sample, bronchoalveolar lavage fluid (BALF) and lung lobes were collected from each mouse and then processed following the protocols in Example 1.
smiles,measurement,setting,value
COC(=O)c1ccc2c(c1)NC(=O)/C2=C(\Nc1ccc(N(C)C(=O)CN2CCN(C)CC2)cc1)c1ccccc1 [nintedanib],level of Col I in the BALF,[1],did not reduce
same,number of lymphocytes and macrophages in the BALF,[1],had no effects
same,pathological changes of lung tissues (H&E staining),[1],significantly reduced the infiltration of neutrophils and macrophages and the thickening of alveolar septum
same,collagen deposition in the lung tissues (Masson's staining IOD),[1]; p<0.001,significantly reduced the collagen deposition
same,level of TGF-β1 in the BALF,[1]; p<0.001,significantly reduced
same,level of hydroxyproline in the lung tissues,[1]; p<0.01,significantly reduced
same,neutrophils in the BALF,[1]; p<0.01,significantly reduced
same,semi-quantitative Ashcroft Score,[1]; p<0.01,significantly reduced the pulmonary fibrosis
same,total number of leukocytes in the BALF,[1]; p<0.01,significantly reduced
same,concentration at 2 h,"[2]; oral, Day 21, itraconazole 15 mg/kg, nintedanib 60 mg/kg p.o. daily, read-out: two-hour post dosing plasma level, single agent",310 ng/mL
same,concentration at 2 h,"[2]; po, Day 21, 15+60 mg/kg p.o. daily, read-out: two-hour post dosing plasma drug level, itraconazole and nintedanib combined in administration",397 ng/mL
